Results: patent publication US20230226040A1, “COMBINATION THERAPY COMPRISING AN FGFR INHIBITOR AND A KRAS INHIBITOR” (Incyte Corporation, priority 2021, published 2023)

Experiments:
Format in all cases: cell-based
pFRS2a = assay: Western blot of pFRS2a in LU99 cell lysate (90 hours treatment); conditions: LU99 cells
Description: FGFR1 and downstream activation marker pFRS2a protein levels were examined in indicated cell lines, as well as markers for epithelial-like cells (E-cadherin) and mesenchymal-like cells (Vimentin).

H358 = assay: 5-day Cell Titer Glo combination matrix, Bliss score; conditions: H358 (Lung, Epithelial), 5 days
Experimental: Cells were seeded in RPMI medium with 10% HI FBS at a density of 500 cells/well in Greiner, white, clear bottom, 384-well tissue culture treated plates containing 10×10 combination matrices of compound. Plates were incubated at 37° C., 5% CO2 for 5 days. On day 5, Cell Titer Glo reagent was added to the plates and ATP luminescence was detected using a Pherastar FSX reader. The synergy score for the combination effect was calculated using a Bliss score model where the Bliss score=Yab-(Ya+Yb−(YaYb))×100, where Ya and Yb are the monotherapies. Bliss scores >20 are strongly synergistic and a higher Bliss scores indicates a higher level of synergism.
(§2) Cells were seeded in RPMI medium with 10% HI FBS at a density of 500 cells/well in Greiner, white, clear bottom, 384-well tissue culture treated plates containing 10×10 combination matrices of compound. Plates were incubated at 37° C., 5% CO2 for 5 days. On day 5, Cell Titer Glo reagent was added to the plates and ATP luminescence was detected using a Pherastar FSX reader. Synergy score for the combination effect is calculated using a Bliss score model where the Bliss score=Yab−(Ya+Yb−(YaYb))×100, where Ya and Yb are the monotherapies. Bliss scores >20 are strongly synergistic and a higher Bliss scores indicates a higher level of synergism.
(§3) Cells were seeded in RPMI medium with 10% HI FBS at a density of 500 cells/well in Greiner, white, clear bottom, 384-well tissue culture treated plates containing 10×10 combination matrices of compound. Plates were incubated at 37° C., 5% CO2 for 5 days. On day 5, Cell Titer Glo reagent was added to the plates and ATP luminescence was detected using a Pherastar FSX reader. The synergy score for the combination effect was calculated using a Bliss score model where the Bliss score=Yab−(Ya+Yb−(YaYb))×100, where Ya and Yb are the monotherapies. Bliss scores >20 are strongly synergistic and a higher Bliss scores indicates a higher level of synergism.

LU-99 = assay: as above; conditions: 5 days
Experimental: as §2, §3

[1] = system: MiaPaca2 KRAS G12C resistant clone 11; assay: 5-day Cell Titer Glo viability and Bliss score
Experimental: (§1) For G12C resistant clone generation, MiaPaca2 parent cells were cultured with increasing concentrations of AMG510 (up to 1μM) over time. The viable cells were re-fed fresh media containing AMG510 weekly. Once the AMG510 resistant cells were growing at normal rates in the presence of 1μM AMG510, they were cloned by limiting dilution. Eight clones were selected for continued passage and further experiments.

[2] = system: MiaPaca2 KRAS G12C resistant clone 23; assay: 5-day Cell Titer Glo viability and Bliss score; conditions: 5-day CTG
Experimental: as §1

[3] = CLONE 11, G12C i 111 nM + Pemi 1 μM, 5-day CTG

CCN1C(=O)N(c2c(F)c(OC)cc(OC)c2F)Cc2cnc3[nH]c(CN4CCOCC4)cc3c21 [Pemigatinib, 3-(2,6-difluoro-3,5-dimethoxyphenyl)-1-ethyl-8-(morpholin-4-ylmethyl)-1,3,4,7-tetrahydro-2H-pyrrolo[3′,2′:5,6]pyrido[4,3-d]pyrimidin-2-one]
pFRS2a level, FGFR inhibitor in combination with KRAS inhibitor MRTX849 (pFRS2a; 50 nM MRTX849, pemigatinib 0.5 μM): inhibited the pFRS2a level
pFRS2a level, FGFR inhibitor in combination with KRAS inhibitors (pFRS2a; with 50 nM AMG510 or Compound 2): inhibited the pFRS2a level
Avg. Bliss Score (H358; FGFR inhibitor in combination with Cmpd 3): 1.4
Avg. Bliss Score (H358; FGFR inhibitor in combination with MRTX849): 3.7
Avg. Bliss Score (LU-99; LU-99 (Lung, Mesenchymal), FGFR inhibitor in combination with Cmpd 3): 44.8
Avg. Bliss Score (LU-99; Lu99 (Lung, Mesenchymal), FGFR inhibitor in combination with MRTX849): 37.4
% viability, Together [1, 3]: 33.8%
BLISS Score [1, 3]: 24.9
% viability, Pemi 1 μM ([1]; CLONE 11, Pemi alone, 5-day CTG): 87.6%
BLISS Score ([1]; MIA-R clone 11, Pemi 12 nM + KRAS G12C i 0.15 nM, 5 day CTG): 2.35
BLISS Score ([1]; MIA-R clone 11, Pemi 12 nM + KRAS G12C i 0.46 nM, 5 day CTG): 11.42
BLISS Score ([1]; MIA-R clone 11, Pemi 12 nM + KRAS G12C i 1.37 nM, 5 day CTG): 6.90
BLISS Score ([1]; MIA-R clone 11, Pemi 12 nM + KRAS G12C i 4.12 nM, 5 day CTG): 11.81
BLISS Score ([1]; MIA-R clone 11, Pemi 12 nM + KRAS G12C i 12.35 nM, 5 day CTG): 1.32
BLISS Score ([1]; MIA-R clone 11, Pemi 12 nM + KRAS G12C i 37.04 nM, 5 day CTG): 5.62
BLISS Score ([1]; MIA-R clone 11, Pemi 12 nM + KRAS G12C i 111.11 nM, 5 day CTG): 11.57
BLISS Score ([1]; MIA-R clone 11, Pemi 12 nM + KRAS G12C i 333.33 nM, 5 day CTG): −7.24
BLISS Score ([1]; MIA-R clone 11, Pemi 12 nM + KRAS G12C i 1000.00 nM, 5 day CTG): 1.05
BLISS Score ([1]; MIA-R clone 11, Pemi 37 nM + KRAS G12C i 0.15 nM, 5 day CTG): 14.47
BLISS Score ([1]; MIA-R clone 11, Pemi 37 nM + KRAS G12C i 0.46 nM, 5 day CTG): 6.20
BLISS Score ([1]; MIA-R clone 11, Pemi 37 nM + KRAS G12C i 1.37 nM, 5 day CTG): 6.05
BLISS Score ([1]; MIA-R clone 11, Pemi 37 nM + KRAS G12C i 4.12 nM, 5 day CTG): 20.01
BLISS Score ([1]; MIA-R clone 11, Pemi 37 nM + KRAS G12C i 12.35 nM, 5 day CTG): 15.07
BLISS Score ([1]; MIA-R clone 11, Pemi 37 nM + KRAS G12C i 37.04 nM, 5 day CTG): 10.60
BLISS Score ([1]; MIA-R clone 11, Pemi 37 nM + KRAS G12C i 111.11 nM, 5 day CTG): 8.39
BLISS Score ([1]; MIA-R clone 11, Pemi 37 nM + KRAS G12C i 333.33 nM, 5 day CTG): −5.78
BLISS Score ([1]; MIA-R clone 11, Pemi 37 nM + KRAS G12C i 1000.00 nM, 5 day CTG): 4.52
BLISS Score ([1]; MIA-R clone 11, Pemi 111 nM + KRAS G12C i 0.15 nM, 5 day CTG): −3.03
BLISS Score ([1]; MIA-R clone 11, Pemi 111 nM + KRAS G12C i 0.46 nM, 5 day CTG): 6.04
BLISS Score ([1]; MIA-R clone 11, Pemi 111 nM + KRAS G12C i 1.37 nM, 5 day CTG): 8.76
BLISS Score ([1]; MIA-R clone 11, Pemi 111 nM + KRAS G12C i 4.12 nM, 5 day CTG): 13.15
BLISS Score ([1]; MIA-R clone 11, Pemi 111 nM + KRAS G12C i 12.35 nM, 5 day CTG): 15.70
BLISS Score ([1]; MIA-R clone 11, Pemi 111 nM + KRAS G12C i 37.04 nM, 5 day CTG): 13.58
BLISS Score ([1]; MIA-R clone 11, Pemi 111 nM + KRAS G12C i 111.11 nM, 5 day CTG): 9.80
BLISS Score ([1]; MIA-R clone 11, Pemi 111 nM + KRAS G12C i 333.33 nM, 5 day CTG): 6.86
BLISS Score ([1]; MIA-R clone 11, Pemi 111 nM + KRAS G12C i 1000.00 nM, 5 day CTG): 3.15
BLISS Score ([1]; MIA-R clone 11, Pemi 333 nM + KRAS G12C i 0.15 nM, 5 day CTG): 6.68
BLISS Score ([1]; MIA-R clone 11, Pemi 333 nM + KRAS G12C i 0.46 nM, 5 day CTG): 20.56
BLISS Score ([1]; MIA-R clone 11, Pemi 333 nM + KRAS G12C i 1.37 nM, 5 day CTG): 17.83
BLISS Score ([1]; MIA-R clone 11, Pemi 333 nM + KRAS G12C i 4.12 nM, 5 day CTG): 34.95
BLISS Score ([1]; MIA-R clone 11, Pemi 333 nM + KRAS G12C i 12.35 nM, 5 day CTG): 20.46
BLISS Score ([1]; MIA-R clone 11, Pemi 333 nM + KRAS G12C i 37.04 nM, 5 day CTG): 24.19
BLISS Score ([1]; MIA-R clone 11, Pemi 333 nM + KRAS G12C i 111.11 nM, 5 day CTG): 25.28
BLISS Score ([1]; MIA-R clone 11, Pemi 333 nM + KRAS G12C i 333.33 nM, 5 day CTG): 14.69
BLISS Score ([1]; MIA-R clone 11, Pemi 333 nM + KRAS G12C i 1000.00 nM, 5 day CTG): 13.90
BLISS Score ([1]; MIA-R clone 11, Pemi 1000 nM + KRAS G12C i 0.15 nM, 5 day CTG): −0.21
BLISS Score ([1]; MIA-R clone 11, Pemi 1000 nM + KRAS G12C i 0.46 nM, 5 day CTG): 11.01
BLISS Score ([1]; MIA-R clone 11, Pemi 1000 nM + KRAS G12C i 1.37 nM, 5 day CTG): 23.94
BLISS Score ([1]; MIA-R clone 11, Pemi 1000 nM + KRAS G12C i 4.12 nM, 5 day CTG): 31.01
BLISS Score ([1]; MIA-R clone 11, Pemi 1000 nM + KRAS G12C i 12.35 nM, 5 day CTG): 29.47
BLISS Score ([1]; MIA-R clone 11, Pemi 1000 nM + KRAS G12C i 37.04 nM, 5 day CTG): 21.52
BLISS Score ([1]; MIA-R clone 11, Pemi 1000 nM + KRAS G12C i 111.11 nM, 5 day CTG): 24.91
BLISS Score ([1]; MIA-R clone 11, Pemi 1000 nM + KRAS G12C i 333.33 nM, 5 day CTG): 20.06
BLISS Score ([1]; MIA-R clone 11, Pemi 1000 nM + KRAS G12C i 1000.00 nM, 5 day CTG): 21.43
% viability, Together ([2]; G12C i 111 nM + Pemi 1 μM): 74.9%
BLISS Score ([2]; G12C i 111 nM + Pemi 1 μM): 16.1
% viability, Pemi 1 μM ([2]; Pemi alone): 100.1%
